Data from ChEMBL document CHEMBL1938230, “6-Position optimization of tricyclic 4-quinolone-based inhibitors of glycogen synthase kinase-3β: discovery of nitrile derivatives with picomolar potency” (Bioorg Med Chem Lett, 2012).

What was measured:
Type in all cases: cell-free
[1] = target: Mitogen-activated protein kinase kinase kinase kinase 5 (Homo sapiens) (UniProt Q9Y4K4); assay: Inhibition of human KHS1 in HL-60 cells lysate assessed as reduction of labeling of acyl-phosphate ATP probe at 100 nM
Chain of Mitogen-activated protein kinase kinase kinase kinase 5 (Homo sapiens) (Q9Y4K4 whole entry, looked up): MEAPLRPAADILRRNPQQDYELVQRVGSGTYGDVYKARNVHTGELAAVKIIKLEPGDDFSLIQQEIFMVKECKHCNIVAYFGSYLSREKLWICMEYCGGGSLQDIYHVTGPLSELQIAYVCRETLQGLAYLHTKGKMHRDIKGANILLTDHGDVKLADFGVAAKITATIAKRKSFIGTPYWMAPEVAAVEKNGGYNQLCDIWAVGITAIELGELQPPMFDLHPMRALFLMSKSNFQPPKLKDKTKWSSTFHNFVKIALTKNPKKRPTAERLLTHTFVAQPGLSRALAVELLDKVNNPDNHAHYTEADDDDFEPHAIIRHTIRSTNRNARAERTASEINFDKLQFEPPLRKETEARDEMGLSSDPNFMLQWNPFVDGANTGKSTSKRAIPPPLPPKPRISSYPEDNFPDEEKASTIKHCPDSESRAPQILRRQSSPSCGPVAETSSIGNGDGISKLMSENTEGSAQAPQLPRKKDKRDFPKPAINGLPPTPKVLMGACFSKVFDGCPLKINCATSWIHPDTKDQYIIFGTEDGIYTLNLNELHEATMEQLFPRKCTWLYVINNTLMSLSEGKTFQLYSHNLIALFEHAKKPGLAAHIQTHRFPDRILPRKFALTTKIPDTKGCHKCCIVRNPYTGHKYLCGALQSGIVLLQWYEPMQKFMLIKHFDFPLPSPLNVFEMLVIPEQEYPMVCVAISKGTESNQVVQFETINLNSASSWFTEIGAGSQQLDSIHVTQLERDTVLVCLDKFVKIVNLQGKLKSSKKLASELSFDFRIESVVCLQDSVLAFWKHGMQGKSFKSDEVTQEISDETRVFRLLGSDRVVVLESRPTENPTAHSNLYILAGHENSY

[2] = target: Serine/threonine-protein kinase ATR (Homo sapiens) (UniProt Q13535); assay: Inhibition of human ATR in HL-60 cells lysate assessed as reduction of labeling of acyl-phosphate ATP probe at 100 nM
Chain of Serine/threonine-protein kinase ATR (Homo sapiens) (Q13535 whole entry, looked up): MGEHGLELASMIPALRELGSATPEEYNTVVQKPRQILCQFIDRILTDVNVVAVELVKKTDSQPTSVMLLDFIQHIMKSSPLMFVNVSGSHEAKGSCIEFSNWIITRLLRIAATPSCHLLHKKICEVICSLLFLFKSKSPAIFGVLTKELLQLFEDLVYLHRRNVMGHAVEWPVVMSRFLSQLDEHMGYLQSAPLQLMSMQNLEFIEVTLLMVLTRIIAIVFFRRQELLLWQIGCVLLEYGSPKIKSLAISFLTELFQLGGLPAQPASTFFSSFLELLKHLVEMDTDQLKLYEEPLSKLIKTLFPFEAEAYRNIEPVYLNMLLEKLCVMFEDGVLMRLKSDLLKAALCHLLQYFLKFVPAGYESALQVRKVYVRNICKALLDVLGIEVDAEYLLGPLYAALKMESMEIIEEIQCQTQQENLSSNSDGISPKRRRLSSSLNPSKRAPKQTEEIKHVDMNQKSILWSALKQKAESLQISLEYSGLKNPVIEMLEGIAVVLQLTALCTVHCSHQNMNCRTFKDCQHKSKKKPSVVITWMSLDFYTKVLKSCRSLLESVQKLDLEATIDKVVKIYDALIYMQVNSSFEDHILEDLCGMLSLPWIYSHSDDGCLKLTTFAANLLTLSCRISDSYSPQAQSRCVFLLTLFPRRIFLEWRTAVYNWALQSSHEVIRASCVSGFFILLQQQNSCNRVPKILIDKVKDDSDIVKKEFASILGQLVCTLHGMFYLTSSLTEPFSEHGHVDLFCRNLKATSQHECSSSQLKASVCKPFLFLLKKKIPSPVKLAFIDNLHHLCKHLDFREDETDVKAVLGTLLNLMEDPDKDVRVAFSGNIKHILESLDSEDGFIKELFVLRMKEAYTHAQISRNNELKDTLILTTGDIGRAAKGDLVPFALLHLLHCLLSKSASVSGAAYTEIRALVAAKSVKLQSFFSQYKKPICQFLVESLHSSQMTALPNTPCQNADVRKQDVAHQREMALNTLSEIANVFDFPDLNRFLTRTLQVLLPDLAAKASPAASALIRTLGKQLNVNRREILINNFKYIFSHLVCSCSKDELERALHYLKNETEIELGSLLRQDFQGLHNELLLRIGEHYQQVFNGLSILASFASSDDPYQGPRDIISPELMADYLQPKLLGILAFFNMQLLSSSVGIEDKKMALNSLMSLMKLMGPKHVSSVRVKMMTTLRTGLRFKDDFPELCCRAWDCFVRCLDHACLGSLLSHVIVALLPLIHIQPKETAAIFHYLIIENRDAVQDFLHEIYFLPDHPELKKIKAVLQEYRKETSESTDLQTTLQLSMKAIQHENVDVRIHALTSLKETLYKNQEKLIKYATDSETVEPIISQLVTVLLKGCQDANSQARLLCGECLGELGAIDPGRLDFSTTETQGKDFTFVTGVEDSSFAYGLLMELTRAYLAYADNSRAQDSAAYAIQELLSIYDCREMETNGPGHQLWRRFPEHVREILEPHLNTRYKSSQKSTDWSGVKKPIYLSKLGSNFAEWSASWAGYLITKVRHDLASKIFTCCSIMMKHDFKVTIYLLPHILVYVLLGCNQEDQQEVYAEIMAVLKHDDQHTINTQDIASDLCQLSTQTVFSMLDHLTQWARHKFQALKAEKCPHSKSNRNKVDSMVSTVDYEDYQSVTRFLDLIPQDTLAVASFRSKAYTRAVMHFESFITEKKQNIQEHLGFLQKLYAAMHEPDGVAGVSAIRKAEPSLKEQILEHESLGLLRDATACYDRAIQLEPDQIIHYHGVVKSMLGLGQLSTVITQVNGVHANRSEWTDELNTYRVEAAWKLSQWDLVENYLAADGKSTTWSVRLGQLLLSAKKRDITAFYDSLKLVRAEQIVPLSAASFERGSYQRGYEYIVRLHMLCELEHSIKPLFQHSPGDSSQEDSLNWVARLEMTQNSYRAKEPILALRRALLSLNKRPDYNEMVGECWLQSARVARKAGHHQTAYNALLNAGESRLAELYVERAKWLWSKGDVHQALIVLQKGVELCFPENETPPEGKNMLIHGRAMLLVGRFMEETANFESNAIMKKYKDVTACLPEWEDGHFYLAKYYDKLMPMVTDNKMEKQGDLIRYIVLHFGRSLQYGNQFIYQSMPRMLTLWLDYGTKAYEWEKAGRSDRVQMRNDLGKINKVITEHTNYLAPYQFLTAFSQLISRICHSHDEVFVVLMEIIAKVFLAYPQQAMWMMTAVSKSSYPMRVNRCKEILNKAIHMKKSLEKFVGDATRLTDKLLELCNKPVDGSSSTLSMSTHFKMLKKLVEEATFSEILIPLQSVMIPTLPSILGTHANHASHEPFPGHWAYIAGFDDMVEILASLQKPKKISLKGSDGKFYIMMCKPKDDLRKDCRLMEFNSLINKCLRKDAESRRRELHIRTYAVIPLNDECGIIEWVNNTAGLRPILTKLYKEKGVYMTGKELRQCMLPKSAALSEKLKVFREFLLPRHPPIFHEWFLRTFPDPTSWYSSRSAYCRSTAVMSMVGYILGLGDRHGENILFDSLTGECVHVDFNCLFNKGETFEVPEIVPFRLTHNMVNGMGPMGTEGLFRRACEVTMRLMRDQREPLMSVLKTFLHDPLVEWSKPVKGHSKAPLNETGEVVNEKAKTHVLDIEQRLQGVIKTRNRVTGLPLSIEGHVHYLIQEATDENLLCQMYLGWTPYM

[3] = target: T1, Receptor-interacting serine/threonine-protein kinase 1 (Homo sapiens) (UniProt Q13546); assay: Inhibition of human RIPK1 in HL-60 cells lysate assessed as reduction of labeling of acyl-phosphate ATP probe at 100 nM
T1 sequence (whole entry): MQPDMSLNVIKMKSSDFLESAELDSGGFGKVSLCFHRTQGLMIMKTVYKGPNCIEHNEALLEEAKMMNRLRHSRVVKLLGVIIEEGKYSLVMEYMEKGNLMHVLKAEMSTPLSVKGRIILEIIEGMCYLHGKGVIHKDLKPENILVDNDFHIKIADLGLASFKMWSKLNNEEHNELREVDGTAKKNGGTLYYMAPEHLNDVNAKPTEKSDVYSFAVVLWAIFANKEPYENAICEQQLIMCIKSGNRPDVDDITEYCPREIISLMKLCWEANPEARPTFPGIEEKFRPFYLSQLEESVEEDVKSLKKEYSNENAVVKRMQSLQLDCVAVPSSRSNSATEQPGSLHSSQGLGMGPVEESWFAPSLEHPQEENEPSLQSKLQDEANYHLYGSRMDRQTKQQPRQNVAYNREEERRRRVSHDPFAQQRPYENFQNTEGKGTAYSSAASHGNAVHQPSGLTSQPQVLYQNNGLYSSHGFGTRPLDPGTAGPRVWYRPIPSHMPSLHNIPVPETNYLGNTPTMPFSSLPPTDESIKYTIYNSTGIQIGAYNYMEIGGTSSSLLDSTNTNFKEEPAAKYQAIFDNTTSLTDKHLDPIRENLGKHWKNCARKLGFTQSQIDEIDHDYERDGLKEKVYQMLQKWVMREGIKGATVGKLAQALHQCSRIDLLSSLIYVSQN

[4] = target: Serine/threonine-protein kinase Nek7 (Homo sapiens) (UniProt Q8TDX7); assay: Inhibition of human NEK7 in HL-60 cells lysate assessed as reduction of labeling of acyl-phosphate ATP probe at 100 nM
Chain of Serine/threonine-protein kinase Nek7 (Homo sapiens) (Q8TDX7 whole entry, looked up): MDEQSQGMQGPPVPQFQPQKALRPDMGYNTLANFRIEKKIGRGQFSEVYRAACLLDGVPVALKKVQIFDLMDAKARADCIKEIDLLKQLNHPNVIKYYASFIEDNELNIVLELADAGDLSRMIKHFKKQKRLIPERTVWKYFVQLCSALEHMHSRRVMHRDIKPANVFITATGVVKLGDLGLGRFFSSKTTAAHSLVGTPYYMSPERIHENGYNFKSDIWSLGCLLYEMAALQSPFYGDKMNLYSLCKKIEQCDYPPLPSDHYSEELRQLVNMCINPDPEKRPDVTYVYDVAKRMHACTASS

[5] = target: c-Jun N-terminal kinase, JNK (Homo sapiens) (UniProt P45983+P53779+P45984); assay: Inhibition of human JNK1/JNK2/JNK3 in HL-60 cells lysate assessed as reduction of labeling of acyl-phosphate ATP probe at 100 nM
[6] = target: Phosphatidylinositol 4-phosphate 3-kinase C2 domain-containing subunit beta (Homo sapiens) (UniProt O00750); assay: Inhibition of human PIK3C2B in HL-60 cells lysate assessed as reduction of labeling of acyl-phosphate ATP probe at 100 nM
[7] = target: Dual specificity mitogen-activated protein kinase kinase 1 (Homo sapiens) (UniProt Q02750); assay: Inhibition of human MAP2K1 in HL-60 cells lysate assessed as reduction of labeling of acyl-phosphate ATP probe at 100 nM
Chain of Dual specificity mitogen-activated protein kinase kinase 1 (Homo sapiens) (Q02750 whole entry): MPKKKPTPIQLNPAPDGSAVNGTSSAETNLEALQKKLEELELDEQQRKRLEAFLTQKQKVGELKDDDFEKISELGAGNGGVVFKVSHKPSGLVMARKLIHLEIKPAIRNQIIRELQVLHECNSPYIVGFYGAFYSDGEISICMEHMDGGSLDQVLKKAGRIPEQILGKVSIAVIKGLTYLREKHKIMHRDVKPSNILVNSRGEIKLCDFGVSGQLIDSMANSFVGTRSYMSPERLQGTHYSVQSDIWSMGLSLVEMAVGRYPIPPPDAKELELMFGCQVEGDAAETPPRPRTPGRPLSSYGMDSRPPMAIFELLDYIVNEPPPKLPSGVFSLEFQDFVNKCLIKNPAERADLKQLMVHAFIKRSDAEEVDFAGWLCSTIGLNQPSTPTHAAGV

[8] = target: T2, Serine/threonine-protein kinase TAO2 (Homo sapiens) (UniProt Q9UL54); assay: Inhibition of human TAO2 in HL-60 cells lysate assessed as reduction of labeling of acyl-phosphate ATP probe at 100 nM
T2 sequence (whole entry): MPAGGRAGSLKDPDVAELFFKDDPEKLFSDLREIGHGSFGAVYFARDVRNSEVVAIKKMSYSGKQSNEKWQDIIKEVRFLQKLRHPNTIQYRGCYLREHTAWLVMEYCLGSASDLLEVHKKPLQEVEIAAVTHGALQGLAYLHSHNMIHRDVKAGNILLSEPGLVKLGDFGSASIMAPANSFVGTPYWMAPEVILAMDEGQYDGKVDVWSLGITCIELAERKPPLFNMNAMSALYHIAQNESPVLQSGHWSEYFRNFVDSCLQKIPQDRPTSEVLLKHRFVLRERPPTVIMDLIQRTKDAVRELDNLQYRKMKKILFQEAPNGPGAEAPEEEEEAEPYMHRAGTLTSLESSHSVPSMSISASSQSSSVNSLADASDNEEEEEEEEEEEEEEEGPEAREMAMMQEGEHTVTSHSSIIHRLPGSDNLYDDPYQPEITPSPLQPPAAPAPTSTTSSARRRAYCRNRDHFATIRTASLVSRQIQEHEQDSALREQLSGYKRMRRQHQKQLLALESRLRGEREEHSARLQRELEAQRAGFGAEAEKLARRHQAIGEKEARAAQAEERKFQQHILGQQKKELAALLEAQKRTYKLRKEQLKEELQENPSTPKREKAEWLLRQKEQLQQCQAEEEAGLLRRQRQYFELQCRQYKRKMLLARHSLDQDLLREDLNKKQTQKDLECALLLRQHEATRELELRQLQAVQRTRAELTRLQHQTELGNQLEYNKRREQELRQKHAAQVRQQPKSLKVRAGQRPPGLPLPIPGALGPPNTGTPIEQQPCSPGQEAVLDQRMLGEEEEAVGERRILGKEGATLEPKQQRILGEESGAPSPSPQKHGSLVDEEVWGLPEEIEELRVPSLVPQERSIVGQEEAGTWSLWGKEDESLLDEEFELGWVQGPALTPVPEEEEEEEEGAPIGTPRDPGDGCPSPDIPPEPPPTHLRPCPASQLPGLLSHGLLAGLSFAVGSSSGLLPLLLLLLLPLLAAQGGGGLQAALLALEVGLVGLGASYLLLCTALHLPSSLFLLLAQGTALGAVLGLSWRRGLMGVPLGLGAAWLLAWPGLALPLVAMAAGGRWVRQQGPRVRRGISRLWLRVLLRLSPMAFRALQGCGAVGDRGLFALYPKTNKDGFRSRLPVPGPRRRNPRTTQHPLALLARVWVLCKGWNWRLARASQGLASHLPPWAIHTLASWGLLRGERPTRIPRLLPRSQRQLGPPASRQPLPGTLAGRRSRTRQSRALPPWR

[9] = target: RAF proto-oncogene serine/threonine-protein kinase (Homo sapiens) (UniProt P04049); assay: Inhibition of human RAF1 in HL-60 cells lysate assessed as reduction of labeling of acyl-phosphate ATP probe at 100 nM
Chain of RAF proto-oncogene serine/threonine-protein kinase (Homo sapiens) (P04049 whole entry): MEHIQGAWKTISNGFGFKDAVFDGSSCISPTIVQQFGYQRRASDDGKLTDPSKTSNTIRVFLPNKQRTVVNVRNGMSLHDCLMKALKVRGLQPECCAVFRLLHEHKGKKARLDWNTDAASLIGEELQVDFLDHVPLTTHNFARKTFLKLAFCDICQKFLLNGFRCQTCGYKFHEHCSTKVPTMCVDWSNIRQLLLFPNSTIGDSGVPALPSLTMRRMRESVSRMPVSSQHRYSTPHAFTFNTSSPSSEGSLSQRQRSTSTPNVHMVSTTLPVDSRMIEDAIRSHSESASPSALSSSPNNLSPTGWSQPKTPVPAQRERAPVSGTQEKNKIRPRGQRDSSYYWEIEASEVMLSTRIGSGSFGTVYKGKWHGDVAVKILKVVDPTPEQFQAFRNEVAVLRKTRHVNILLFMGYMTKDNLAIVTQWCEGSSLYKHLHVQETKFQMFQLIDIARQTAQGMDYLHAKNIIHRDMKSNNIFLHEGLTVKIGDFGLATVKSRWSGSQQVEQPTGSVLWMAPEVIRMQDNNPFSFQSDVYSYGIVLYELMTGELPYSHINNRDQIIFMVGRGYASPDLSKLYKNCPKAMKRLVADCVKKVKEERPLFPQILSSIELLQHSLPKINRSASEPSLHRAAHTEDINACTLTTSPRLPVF

inhibition [1] | inhibition [2] | inhibition [3] | inhibition [4] | inhibition [5] | inhibition [6] | inhibition [7] | inhibition [8] | inhibition [9] | SMILES
< 35% | < 35% | < 35% | < 35% | < 35% | < 35% | < 35% | < 35% | < 35% | C[C@H]1COc2c(NCCCc3ccccn3)c(F)c(N)c3c(=O)c(C#N)cn1c23
< 35% | < 35% | < 35% | < 35% | < 35% | < 35% | < 35% | < 35% | < 35% | C[C@H]1COc2c(NCCCn3cccn3)c(F)c(N)c3c(=O)c(C(=O)O)cn1c23
< 35% | < 35% | < 35% | < 35% | < 35% | < 35% | < 35% | < 35% | < 35% | C[C@H]1COc2c(NCCCc3ccccn3)c(F)c(N)c3c(=O)c(C(=O)O)cn1c23
< 35% | < 35% | < 35% | < 35% | < 35% | < 35% | < 35% | < 35% | < 35% | C[C@H]1COc2c(NCCCn3cccn3)c(F)c(N)c3c(=O)c(C#N)cn1c23
